In patent US20130172191A1, “STABLE ETHYLENE INHIBITING COMPOUNDS AND METHODS FOR THEIR PREPARATION” (priority 2002, published 2013):

Experiments:
[1] = Chemically induced release of a cyclopropene (1-methylcyclopropene) by a reducing or nucleophilic agent, GC of headspace; format: physicochemical
Experimental: (§1) Into a 50 ml Florence flask with magnetic stirring was placed 2 ml of tetrahydrofuran and 0.30 g of 1,2-diiodo-1-methylcyclopropane. […] GC method uses Varian CP-PoraBOND Q column 10 meters long 0.32 mm ID; helium carrier; initial temperature 50° C.; initial time 0 minutes; ramp rate 20° C./min; final temperature 270° C.; final time 5 minutes; injection volume 0.20 ml. The retention time of an authentic sample of 1-methylcyclopropene was 2.91 minutes. 1 ppm is easily detectable under these conditions.
Into a 100 ml Florence flask with magnetic stirring was placed 2 ml of tetrahydrofuran and 1.0 g of zinc dust. The zinc was activated with 10 drops of 1,2-dibromoethane. Then 0.34 g of 1,2-diiodo-1-methylcyclopropane was added.
Into a 100 ml Florence flask with magnetic stirring was placed 2 ml of methanol and 1.0 g of zinc dust. The zinc was activated with 10 drops of 1,2-dibromoethane. Then 0.34 g of 1,2-diiodo-1-methylcyclopropane was added.
Into a 100 ml Florence flask with magnetic stirring was placed 2 ml of tetrahydrofuran and 1.1 g of magnesium turnings. The magnesium was activated with 10 drops of 1,2-dibromoethane. Then 0.35 g of 1,2-diiodo-1-methylcyclopropane was added.
Into a 50 ml Florence flask with magnetic stirring was placed 3 g of dimethylformamide and 1.2 g of triphenylphosphine. Then 0.83 g of 1,2-diiodo-1-methylcyclopropane was added.
Into a 100 ml Florence flask with magnetic stirring was placed 2 g of dimethylformamide, 0.70 g of potassium t-butoxide, and 0.84 g of 4-methylbenzenethiol. Then 0.40 g of 1,2-diiodo-1-methylcyclopropane was added.
The polymeric reagent was prepared by slurrying 50 ml of Duolite™ GT73 (Rohm and Haas Company) and stirring for two hours with 50 ml of water and 10 g of 45% aqueous potassium hydroxide. The slurry was filtered, washed twice with water, thrice with methanol, air dried, and placed in a vacuum oven overnight. 0.54 g of this polymeric reagent was placed in a 122 ml vial and the beads were wetted with 0.10 g of 1,2-diiodo-1-methylcyclopropane in 0.70 g of methanol.

[2] = Control experiment: 1,2-diiodo-1-methylcyclopropane in tetrahydrofuran without reagent, GC of headspace; format: physicochemical; details: 0.30 g in 2 ml tetrahydrofuran, no reagent, stirring 5 minutes; 1 ppm easily detectable
Experimental: as §1

1-methylcyclopropene in headspace (GC analysis) ([1]; magnesium turnings 1.1 g (activated with 1,2-dibromoethane) in 2 ml tetrahydrofuran, 0.35 g precursor, 100 ml flask, stirring 3 hours): 49993 ppm
1-methylcyclopropene in headspace (GC analysis) ([1]; polymeric benzenethiol reagent (Duolite GT73, KOH treated) 0.54 g, 0.10 g precursor in 0.70 g methanol, 122 ml vial, overnight at room temperature): 134 ppm
1-methylcyclopropene in headspace (GC analysis) ([1]; triphenylphosphine 1.2 g in 3 g dimethylformamide, 0.83 g precursor, 50 ml flask, 15 minutes at room temperature): 10 ppm
1-methylcyclopropene in headspace (GC analysis) ([1]; zinc dust 1.0 g (activated with 1,2-dibromoethane) in 2 ml methanol, 0.34 g precursor, 100 ml flask, stirring 30 minutes): 98390 ppm
1-methylcyclopropene in headspace (GC analysis) ([1]; zinc dust 1.0 g (activated with 1,2-dibromoethane) in 2 ml tetrahydrofuran, 0.34 g precursor, 100 ml flask, stirring 20 hours): 4658 ppm
1-methylcyclopropene in headspace (GC analysis) [2]: no detectable 1-methylcyclopropene
SMILES: CC1(I)CC1I (stereo not shown) [Example 60, 1,2-diiodo-1-methylcyclopropane]
1-methylcyclopropene in headspace (GC analysis) ([1]; 4-methylbenzenethiol 0.84 g, potassium t-butoxide 0.70 g in 2 g dimethylformamide, 0.40 g precursor, 100 ml flask, 15 minutes at room temperature): 87567 ppm
